ChEMBL document CHEMBL1821607, “N-Arylalkyl-2-azaadamantanes as cage-expanded polycarbocyclic sigma (σ) receptor ligands” (Bioorg Med Chem Lett, 2011)

Tests used:
[1] = molecular target: T1, Alpha-1A adrenergic receptor (Homo sapiens) (UniProt P35348); assay: Inhibition of alpha-1A adrenergic receptor at 10 uM by NIMH PDSP
T1 sequence (whole entry): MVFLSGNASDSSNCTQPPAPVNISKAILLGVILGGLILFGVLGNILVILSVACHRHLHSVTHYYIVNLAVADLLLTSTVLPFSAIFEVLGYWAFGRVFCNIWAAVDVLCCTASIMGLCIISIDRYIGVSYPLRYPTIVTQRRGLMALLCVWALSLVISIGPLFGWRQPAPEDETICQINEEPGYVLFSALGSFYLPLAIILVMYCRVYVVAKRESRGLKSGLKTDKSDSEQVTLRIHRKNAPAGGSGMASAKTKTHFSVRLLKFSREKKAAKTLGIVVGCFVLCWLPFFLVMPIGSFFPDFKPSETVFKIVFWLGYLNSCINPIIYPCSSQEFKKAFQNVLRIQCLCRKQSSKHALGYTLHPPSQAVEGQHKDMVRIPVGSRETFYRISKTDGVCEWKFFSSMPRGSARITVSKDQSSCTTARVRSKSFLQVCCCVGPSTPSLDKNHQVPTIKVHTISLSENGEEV

[2] = molecular target: 5-hydroxytryptamine receptor 1B (Homo sapiens) (UniProt P28222); assay: Inhibition of 5-HT1B receptor at 10 uM by NIMH PDSP
5-hydroxytryptamine receptor 1B (Homo sapiens), sequence (P28222 whole entry): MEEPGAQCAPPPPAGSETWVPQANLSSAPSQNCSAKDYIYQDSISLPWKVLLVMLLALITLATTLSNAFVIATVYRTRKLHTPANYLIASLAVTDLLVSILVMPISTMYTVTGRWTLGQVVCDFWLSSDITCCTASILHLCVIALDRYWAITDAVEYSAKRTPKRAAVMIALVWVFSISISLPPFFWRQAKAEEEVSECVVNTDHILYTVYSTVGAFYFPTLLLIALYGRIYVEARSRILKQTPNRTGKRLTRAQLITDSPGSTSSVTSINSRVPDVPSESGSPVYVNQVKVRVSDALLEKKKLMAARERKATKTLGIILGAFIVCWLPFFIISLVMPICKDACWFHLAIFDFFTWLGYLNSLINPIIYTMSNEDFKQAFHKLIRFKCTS

[3] = molecular target: 5-hydroxytryptamine receptor 6 (Homo sapiens) (UniProt P50406); assay: Inhibition of 5-HT6 receptor at 10 uM by NIMH PDSP
5-hydroxytryptamine receptor 6 (Homo sapiens), sequence (P50406 whole entry): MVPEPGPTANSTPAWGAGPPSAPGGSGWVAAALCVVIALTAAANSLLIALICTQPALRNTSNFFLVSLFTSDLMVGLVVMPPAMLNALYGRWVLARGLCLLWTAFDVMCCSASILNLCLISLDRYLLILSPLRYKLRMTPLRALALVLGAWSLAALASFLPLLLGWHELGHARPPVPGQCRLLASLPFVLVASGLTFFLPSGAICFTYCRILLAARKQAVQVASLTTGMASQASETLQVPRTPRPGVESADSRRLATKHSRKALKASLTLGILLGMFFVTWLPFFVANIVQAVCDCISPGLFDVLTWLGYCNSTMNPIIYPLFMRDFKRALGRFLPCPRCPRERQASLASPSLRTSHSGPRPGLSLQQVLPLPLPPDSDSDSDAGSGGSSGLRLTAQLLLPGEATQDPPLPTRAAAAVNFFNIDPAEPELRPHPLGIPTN

[4] = molecular target: Sodium-dependent noradrenaline transporter (Homo sapiens, UniProt P23975); assay: Inhibition of NET transporter by NIMH PDSP
[5] = molecular target: T2, 5-hydroxytryptamine receptor 2C (Homo sapiens) (UniProt P28335); assay: Inhibition of 5-HT2C receptor at 10 uM by NIMH PDSP
T2 sequence (whole entry): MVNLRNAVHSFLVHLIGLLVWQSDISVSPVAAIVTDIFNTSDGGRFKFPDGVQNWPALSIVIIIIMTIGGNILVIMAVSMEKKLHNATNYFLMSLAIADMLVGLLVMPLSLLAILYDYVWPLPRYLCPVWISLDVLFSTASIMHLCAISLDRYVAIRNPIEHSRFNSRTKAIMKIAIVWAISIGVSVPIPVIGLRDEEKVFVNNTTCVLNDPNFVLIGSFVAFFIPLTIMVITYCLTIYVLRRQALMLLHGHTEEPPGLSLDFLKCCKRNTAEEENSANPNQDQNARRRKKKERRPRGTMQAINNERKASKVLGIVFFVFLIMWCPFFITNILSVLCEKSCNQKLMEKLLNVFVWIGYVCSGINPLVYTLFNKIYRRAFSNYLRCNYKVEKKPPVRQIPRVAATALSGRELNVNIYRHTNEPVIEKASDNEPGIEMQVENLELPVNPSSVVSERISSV

[6] = molecular target: 5-hydroxytryptamine receptor 7 (Homo sapiens) (UniProt P34969); assay: Inhibition of 5-HT7 receptor at 10 uM by NIMH PDSP
5-hydroxytryptamine receptor 7 (Homo sapiens), sequence (P34969 whole entry): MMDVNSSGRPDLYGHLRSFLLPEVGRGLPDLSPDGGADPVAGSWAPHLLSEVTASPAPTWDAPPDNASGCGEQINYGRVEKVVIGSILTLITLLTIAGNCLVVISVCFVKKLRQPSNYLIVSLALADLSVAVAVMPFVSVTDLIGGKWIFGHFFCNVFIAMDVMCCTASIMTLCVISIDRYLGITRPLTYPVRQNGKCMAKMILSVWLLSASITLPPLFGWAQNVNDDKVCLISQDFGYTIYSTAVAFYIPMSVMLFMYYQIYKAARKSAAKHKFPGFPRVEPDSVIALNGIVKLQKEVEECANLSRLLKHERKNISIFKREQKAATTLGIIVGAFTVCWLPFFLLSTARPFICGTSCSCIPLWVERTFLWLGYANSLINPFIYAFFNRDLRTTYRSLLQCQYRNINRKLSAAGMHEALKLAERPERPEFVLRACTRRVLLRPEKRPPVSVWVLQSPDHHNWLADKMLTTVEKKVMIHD

[7] = molecular target: Beta-3 adrenergic receptor (Homo sapiens) (UniProt P13945); assay: Inhibition of beta-3 adrenergic receptor at 10 uM by NIMH PDSP
Beta-3 adrenergic receptor (Homo sapiens), sequence (P13945 whole entry, looked up): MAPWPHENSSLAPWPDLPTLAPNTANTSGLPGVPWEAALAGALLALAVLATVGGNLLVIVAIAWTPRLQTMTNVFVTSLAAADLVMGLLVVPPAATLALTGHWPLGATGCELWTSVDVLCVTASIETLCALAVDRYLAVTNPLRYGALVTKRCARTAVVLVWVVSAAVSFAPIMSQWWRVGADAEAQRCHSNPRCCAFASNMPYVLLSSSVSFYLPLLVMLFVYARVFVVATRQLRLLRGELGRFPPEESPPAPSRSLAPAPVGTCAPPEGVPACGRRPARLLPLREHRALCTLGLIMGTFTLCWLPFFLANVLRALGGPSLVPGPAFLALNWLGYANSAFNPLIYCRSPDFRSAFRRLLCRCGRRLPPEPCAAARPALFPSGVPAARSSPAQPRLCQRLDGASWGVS

[8] = molecular target: D(2) dopamine receptor (Homo sapiens) (UniProt P14416); assay: Inhibition of D2 dopamine receptor at 10 uM by NIMH PDSP
D(2) dopamine receptor (Homo sapiens), sequence (P14416 whole entry): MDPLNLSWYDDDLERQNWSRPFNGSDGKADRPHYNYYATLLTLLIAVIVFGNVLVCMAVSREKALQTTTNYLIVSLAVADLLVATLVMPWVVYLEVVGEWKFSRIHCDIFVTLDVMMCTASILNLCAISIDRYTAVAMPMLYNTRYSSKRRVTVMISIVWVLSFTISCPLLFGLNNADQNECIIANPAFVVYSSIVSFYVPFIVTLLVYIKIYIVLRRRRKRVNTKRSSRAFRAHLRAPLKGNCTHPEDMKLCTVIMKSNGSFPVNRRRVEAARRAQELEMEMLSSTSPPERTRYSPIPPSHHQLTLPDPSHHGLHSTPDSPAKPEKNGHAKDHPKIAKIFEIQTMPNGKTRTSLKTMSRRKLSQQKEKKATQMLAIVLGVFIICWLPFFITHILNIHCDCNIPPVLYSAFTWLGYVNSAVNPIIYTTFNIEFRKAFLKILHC

[9] = molecular target: Sodium-dependent serotonin transporter (Homo sapiens) (UniProt P31645); assay: Inhibition of SERT at 10 uM by NIMH PDSP
Sodium-dependent serotonin transporter (Homo sapiens), sequence (P31645 whole entry, looked up): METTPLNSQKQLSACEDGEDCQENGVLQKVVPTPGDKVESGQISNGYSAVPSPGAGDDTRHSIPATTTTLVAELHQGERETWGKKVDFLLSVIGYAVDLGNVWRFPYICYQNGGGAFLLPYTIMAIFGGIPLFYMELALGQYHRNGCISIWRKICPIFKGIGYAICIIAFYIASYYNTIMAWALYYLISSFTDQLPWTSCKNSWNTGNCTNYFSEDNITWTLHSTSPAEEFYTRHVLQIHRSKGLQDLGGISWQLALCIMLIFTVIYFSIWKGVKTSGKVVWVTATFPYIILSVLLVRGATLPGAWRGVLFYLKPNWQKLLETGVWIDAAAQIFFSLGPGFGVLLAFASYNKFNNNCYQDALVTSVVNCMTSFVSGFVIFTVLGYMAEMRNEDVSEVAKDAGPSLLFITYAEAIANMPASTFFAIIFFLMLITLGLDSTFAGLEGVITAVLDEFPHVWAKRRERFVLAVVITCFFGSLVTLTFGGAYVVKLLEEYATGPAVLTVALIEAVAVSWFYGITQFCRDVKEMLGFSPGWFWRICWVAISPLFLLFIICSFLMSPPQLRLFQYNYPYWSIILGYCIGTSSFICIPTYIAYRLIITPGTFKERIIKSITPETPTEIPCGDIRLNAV

[10] = molecular target: 5-hydroxytryptamine receptor 2B (Homo sapiens) (UniProt P41595); assay: Inhibition of 5-HT2B receptor at 10 uM by NIMH PDSP
5-hydroxytryptamine receptor 2B (Homo sapiens), sequence (P41595 whole entry): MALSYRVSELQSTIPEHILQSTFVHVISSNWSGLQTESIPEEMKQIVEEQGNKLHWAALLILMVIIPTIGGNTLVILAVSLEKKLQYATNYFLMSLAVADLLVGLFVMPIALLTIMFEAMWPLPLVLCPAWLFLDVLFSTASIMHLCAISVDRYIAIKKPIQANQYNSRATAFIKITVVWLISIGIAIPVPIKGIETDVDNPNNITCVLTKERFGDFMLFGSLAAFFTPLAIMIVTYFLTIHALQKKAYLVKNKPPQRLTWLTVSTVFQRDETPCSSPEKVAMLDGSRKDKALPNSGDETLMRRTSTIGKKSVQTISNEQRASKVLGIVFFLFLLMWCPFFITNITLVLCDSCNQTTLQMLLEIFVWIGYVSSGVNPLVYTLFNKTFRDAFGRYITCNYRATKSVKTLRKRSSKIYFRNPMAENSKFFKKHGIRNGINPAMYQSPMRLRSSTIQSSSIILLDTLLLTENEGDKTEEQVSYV

Rattus norvegicus = species: Rattus norvegicus; assay: Inhibition of BZP receptor in rat brain at 10 uM by NIMH PDSP; type: tissue-based
[11] = molecular target: Mu-type opioid receptor (Homo sapiens) (UniProt P35372); assay: Inhibition of mu opioid receptor at 10 uM by NIMH PDSP
Mu-type opioid receptor (Homo sapiens), sequence (P35372 whole entry): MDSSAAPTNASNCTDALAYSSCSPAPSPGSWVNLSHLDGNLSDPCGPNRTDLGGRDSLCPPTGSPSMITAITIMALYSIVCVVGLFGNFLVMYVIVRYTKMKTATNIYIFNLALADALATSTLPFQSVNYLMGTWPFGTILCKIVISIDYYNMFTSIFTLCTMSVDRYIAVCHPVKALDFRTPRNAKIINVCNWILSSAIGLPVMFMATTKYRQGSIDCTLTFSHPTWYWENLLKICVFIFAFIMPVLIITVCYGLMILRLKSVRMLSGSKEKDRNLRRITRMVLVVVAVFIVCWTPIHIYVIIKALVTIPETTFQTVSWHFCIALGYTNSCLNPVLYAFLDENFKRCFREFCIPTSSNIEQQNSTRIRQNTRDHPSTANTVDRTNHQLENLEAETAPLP

[12] = molecular target: T3, Alpha-1D adrenergic receptor (Homo sapiens) (UniProt P25100); assay: Inhibition of alpha-1D adrenergic receptor at 10 uM by NIMH PDSP
T3 sequence (whole entry): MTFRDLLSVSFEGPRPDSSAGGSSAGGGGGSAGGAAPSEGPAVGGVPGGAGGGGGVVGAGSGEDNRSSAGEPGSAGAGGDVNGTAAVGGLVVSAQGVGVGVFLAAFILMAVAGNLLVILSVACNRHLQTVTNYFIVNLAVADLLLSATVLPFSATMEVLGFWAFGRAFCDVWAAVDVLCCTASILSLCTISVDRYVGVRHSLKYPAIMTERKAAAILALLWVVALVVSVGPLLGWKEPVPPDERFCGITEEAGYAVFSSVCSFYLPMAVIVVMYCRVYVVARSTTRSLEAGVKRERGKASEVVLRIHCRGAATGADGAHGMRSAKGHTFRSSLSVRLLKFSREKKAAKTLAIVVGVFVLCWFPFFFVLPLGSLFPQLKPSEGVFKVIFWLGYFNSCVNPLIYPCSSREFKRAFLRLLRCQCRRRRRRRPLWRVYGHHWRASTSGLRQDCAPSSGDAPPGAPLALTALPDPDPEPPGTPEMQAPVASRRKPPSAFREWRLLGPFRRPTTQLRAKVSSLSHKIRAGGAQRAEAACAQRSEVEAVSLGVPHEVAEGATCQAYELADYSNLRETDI

[13] = molecular target: Beta-1 adrenergic receptor (Homo sapiens) (UniProt P08588); assay: Inhibition of beta-1 adrenergic receptor at 10 uM by NIMH PDSP
Beta-1 adrenergic receptor (Homo sapiens), sequence (P08588 whole entry, looked up): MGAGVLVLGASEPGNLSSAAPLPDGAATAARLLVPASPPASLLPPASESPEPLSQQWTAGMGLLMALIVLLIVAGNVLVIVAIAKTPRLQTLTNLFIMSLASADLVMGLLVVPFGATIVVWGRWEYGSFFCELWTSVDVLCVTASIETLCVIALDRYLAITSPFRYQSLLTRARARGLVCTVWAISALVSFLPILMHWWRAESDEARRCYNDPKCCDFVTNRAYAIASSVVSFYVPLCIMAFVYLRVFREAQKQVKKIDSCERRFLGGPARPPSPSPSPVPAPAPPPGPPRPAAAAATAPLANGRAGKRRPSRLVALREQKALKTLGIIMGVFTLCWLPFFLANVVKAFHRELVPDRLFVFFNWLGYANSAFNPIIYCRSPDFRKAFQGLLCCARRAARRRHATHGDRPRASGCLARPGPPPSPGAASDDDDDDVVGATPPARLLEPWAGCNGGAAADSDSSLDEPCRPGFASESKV

[14] = molecular target: T4, 5-hydroxytryptamine receptor 3A (Homo sapiens) (UniProt P46098); assay: Inhibition of 5-HT3 receptor at 10 uM by NIMH PDSP
T4 sequence (whole entry): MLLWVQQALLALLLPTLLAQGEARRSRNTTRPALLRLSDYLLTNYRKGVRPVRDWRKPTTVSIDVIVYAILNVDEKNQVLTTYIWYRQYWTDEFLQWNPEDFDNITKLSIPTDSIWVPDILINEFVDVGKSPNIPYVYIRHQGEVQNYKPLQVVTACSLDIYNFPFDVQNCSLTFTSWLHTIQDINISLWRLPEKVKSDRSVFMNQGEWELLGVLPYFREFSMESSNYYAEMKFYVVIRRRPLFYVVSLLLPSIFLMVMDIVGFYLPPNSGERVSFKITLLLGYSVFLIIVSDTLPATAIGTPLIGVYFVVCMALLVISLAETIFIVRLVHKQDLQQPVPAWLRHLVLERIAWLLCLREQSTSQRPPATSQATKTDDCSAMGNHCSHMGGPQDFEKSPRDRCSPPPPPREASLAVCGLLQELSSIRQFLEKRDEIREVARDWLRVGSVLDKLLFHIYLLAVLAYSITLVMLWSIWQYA

[15] = molecular target: Delta-type opioid receptor (Homo sapiens) (UniProt P41143); assay: Inhibition of delta opioid receptor at 10 uM by NIMH PDSP
Delta-type opioid receptor (Homo sapiens), sequence (P41143 whole entry): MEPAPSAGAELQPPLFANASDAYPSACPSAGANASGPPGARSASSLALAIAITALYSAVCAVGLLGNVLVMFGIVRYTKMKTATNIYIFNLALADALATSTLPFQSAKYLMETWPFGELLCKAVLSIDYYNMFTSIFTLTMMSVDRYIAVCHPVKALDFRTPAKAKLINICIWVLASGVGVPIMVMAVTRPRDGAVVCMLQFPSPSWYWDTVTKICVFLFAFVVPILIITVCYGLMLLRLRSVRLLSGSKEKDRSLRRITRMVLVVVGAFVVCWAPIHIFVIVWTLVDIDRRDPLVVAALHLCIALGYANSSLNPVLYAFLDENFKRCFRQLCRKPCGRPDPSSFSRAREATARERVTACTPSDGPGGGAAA

[16] = molecular target: D(3) dopamine receptor (Homo sapiens) (UniProt P35462); assay: Inhibition of D3 dopamine receptor at 10 uM by NIMH PDSP
D(3) dopamine receptor (Homo sapiens), sequence (P35462 whole entry): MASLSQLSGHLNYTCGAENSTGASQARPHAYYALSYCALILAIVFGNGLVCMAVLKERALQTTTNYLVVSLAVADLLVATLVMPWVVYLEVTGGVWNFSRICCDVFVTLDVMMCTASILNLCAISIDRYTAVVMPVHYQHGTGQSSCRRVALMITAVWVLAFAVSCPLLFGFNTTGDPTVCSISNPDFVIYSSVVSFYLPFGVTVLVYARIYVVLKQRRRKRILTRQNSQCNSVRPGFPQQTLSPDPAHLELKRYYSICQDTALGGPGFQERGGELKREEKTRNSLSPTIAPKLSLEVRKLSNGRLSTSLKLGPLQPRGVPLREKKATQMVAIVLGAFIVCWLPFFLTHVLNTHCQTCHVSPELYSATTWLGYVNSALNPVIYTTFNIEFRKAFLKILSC

SMILES	inhibition [1]	inhibition [2]	inhibition [3]	Ki [4]	inhibition [5]	inhibition [6]	inhibition [7]	inhibition [8]	inhibition [9]	inhibition [10]	inhibition (Rattus norvegicus)	inhibition [11]	inhibition [12]	inhibition [13]	inhibition [14]	inhibition [15]	inhibition [16]
OC12CC3CC(CC(C3)N1Cc1cccc(F)c1)C2 (racemic)	< 50%	< 50%	< 50%	> 10 µM	< 50%	< 50%	< 50%	< 50%	< 50%	< 50%	< 50%	< 50%	< 50%	< 50%	< 50%	< 50%	< 50%
Fc1cccc(CN2C3CC4CC(C3)CC2C4)c1		< 50%	< 50%	> 10 µM	< 50%	< 50%	< 50%	< 50%	< 50%	< 50%	< 50%	< 50%	< 50%	< 50%	< 50%	< 50%	< 50%
OC12CC3CC(CC(C3)N1Cc1ccccc1)C2 (racemic)	< 50%	< 50%	< 50%		< 50%	< 50%	< 50%	< 50%	< 50%	< 50%	< 50%	< 50%	< 50%	< 50%	< 50%	< 50%	< 50%
c1ccc(CN2C3CC4CC(C3)CC2C4)cc1	< 50%	< 50%	< 50%	> 10 µM	< 50%	< 50%	< 50%	< 50%	< 50%	< 50%	< 50%	< 50%	< 50%	< 50%	< 50%	< 50%	< 50%
